According to ChEMBL document CHEMBL4507262, “Data for DCP probe A-1596586” (2021):
Activity calls are given as the source filed them. The calls are words filed in the database; no cut-off is given here.

Experiments:
[1] = target: Serine/threonine-protein kinase 17B (Homo sapiens) (UniProt O94768); conditions: Compound concentration 1000.0 nM
[2] = target: Dual specificity tyrosine-phosphorylation-regulated kinase 1B (Homo sapiens) (UniProt Q9Y463); conditions: Compound concentration 1000.0 nM
[3] = test system: Tyrosine-protein kinase ABL1 (Homo sapiens), P00519 [Q252H]; conditions: Compound concentration 1000.0 nM
[4] = target: Serine/threonine-protein kinase RIO2 (Homo sapiens) (UniProt Q9BVS4); conditions: Compound concentration 1000.0 nM
[5] = target: AP2-associated protein kinase 1 (Homo sapiens) (UniProt Q2M2I8); conditions: Compound concentration 1000.0 nM
[6] = target: Tyrosine-protein kinase Fes/Fps (Homo sapiens) (UniProt P07332); conditions: Compound concentration 1000.0 nM
[7] = target: Tyrosine-protein kinase Mer (Homo sapiens) (UniProt Q12866); conditions: Compound concentration 1000.0 nM
[8] = target: Insulin-like growth factor 1 receptor (Homo sapiens) (UniProt P08069); conditions: Compound concentration 1000.0 nM
[9] = target: Mitogen-activated protein kinase kinase kinase 5 (Homo sapiens) (UniProt Q99683); conditions: Compound concentration 1000.0 nM
[10] = target: Insulin receptor-related protein (Homo sapiens) (UniProt P14616); conditions: Compound concentration 1000.0 nM
[11] = test system: Serine/threonine-protein kinase B-raf (Homo sapiens), P15056 [V600E]; conditions: Compound concentration 1000.0 nM
[12] = target: Calcium/calmodulin-dependent protein kinase type II subunit gamma (Homo sapiens) (UniProt Q13555); conditions: Compound concentration 1000.0 nM
[13] = target: Tyrosine-protein kinase BTK (Homo sapiens) (UniProt Q06187); conditions: Compound concentration 1000.0 nM
[14] = target: Serine/threonine-protein kinase SBK1 (Homo sapiens) (UniProt Q52WX2); conditions: Compound concentration 1000.0 nM
[15] = target: Citron Rho-interacting kinase (Homo sapiens) (UniProt O14578); conditions: Compound concentration 1000.0 nM
[16] = target: GABA-A receptor; alpha-1/beta-2/gamma-2 (Homo sapiens) (UniProt P14867+P47870+P18507); assay: GABAA1 (h) (alpha1,beta2,gamma2) Eurofins-Cerep binding assay; format: protein-complex assay; design: ligand concentration 15 nM; conditions: filed as agonist, Compound concentration 10.0 uM
[17] = target: Tyrosine-protein kinase Lyn (Homo sapiens) (UniProt P07948); conditions: Compound concentration 1000.0 nM
[18] = test system: Receptor-type tyrosine-protein kinase FLT3 (Homo sapiens), P36888 [D835H]; conditions: Compound concentration 1000.0 nM
[19] = test system: Tyrosine-protein kinase ABL1 (Homo sapiens), P00519 [T315I]; conditions: Compound concentration 1000.0 nM
[20] = test system: Hepatocyte growth factor receptor (Homo sapiens), P08581 [Y1235D]; conditions: Compound concentration 1000.0 nM
[21] = target: 5-hydroxytryptamine receptor 1A (Homo sapiens) (UniProt P08908); assay: 5-HT1A (h) Eurofins-Cerep binding assay; design: ligand concentration 0.5 nM; conditions: filed as agonist, Compound concentration 10.0 uM
[22] = target: Ribosomal protein S6 kinase alpha-6 (Homo sapiens) (UniProt Q9UK32); conditions: Compound concentration 1000.0 nM
[23] = target: Cyclin-dependent kinase 18 (Homo sapiens) (UniProt Q07002); conditions: Compound concentration 1000.0 nM
[24] = target: Tumor necrosis factor (Homo sapiens) (UniProt P01375); assay: TNF-alpha (h) Eurofins-Cerep binding assay; design: ligand concentration 0.1 nM; conditions: filed as agonist, Compound concentration 10.0 uM
[25] = target: Non-receptor tyrosine-protein kinase TNK1 (Homo sapiens) (UniProt Q13470); conditions: Compound concentration 1000.0 nM
[26] = target: Type-1 angiotensin II receptor (Homo sapiens) (UniProt P30556); assay: AT1 (h) Eurofins-Cerep binding assay; design: ligand concentration 0.05 nM; conditions: filed as antagonist, Compound concentration 10.0 uM
[27] = target: Dual specificity testis-specific protein kinase 1 (Homo sapiens) (UniProt Q15569); conditions: Compound concentration 1000.0 nM
[28] = target: BDNF/NT-3 growth factors receptor (Homo sapiens) (UniProt Q16620); conditions: Compound concentration 1000.0 nM
[29] = target: Vascular endothelial growth factor receptor 2 (Homo sapiens) (UniProt P35968); conditions: Compound concentration 1000.0 nM
[30] = target: Serine/threonine-protein kinase Nek11 (Homo sapiens) (UniProt Q8NG66); conditions: Compound concentration 1000.0 nM
[31] = test system: Receptor-type tyrosine-protein kinase FLT3 (Homo sapiens), P36888 [D835V]; conditions: Compound concentration 1000.0 nM
[32] = target: Sodium/potassium-transporting ATPase (Sus scrofa) (UniProt P05027+P05024+D2WKD8+D2WKD7+F1ST41); assay: ATPase (Na+/K+) Eurofins-Cerep enzyme and uptake assay; format: protein-complex assay; conditions: Compound concentration 10.0 uM
[33] = target: Mitotic checkpoint serine/threonine-protein kinase BUB1 (Homo sapiens) (UniProt O43683); conditions: Compound concentration 1000.0 nM
[34] = target: Kappa-type opioid receptor (Homo sapiens) (UniProt P41145); conditions: Compound concentration 10.0 uM
[35] = test system: Epidermal growth factor receptor (Homo sapiens), P00533 [UNDEFINED MUTATION]; conditions: Compound concentration 1000.0 nM
[36] = target: Serine/threonine-protein kinase haspin (Homo sapiens) (UniProt Q8TF76); conditions: Compound concentration 1000.0 nM
[37] = target: 1-phosphatidylinositol 3-phosphate 5-kinase (Homo sapiens) (UniProt Q9Y2I7); conditions: Compound concentration 1000.0 nM
[38] = target: Cystic fibrosis transmembrane conductance regulator (Homo sapiens, UniProt P13569); assay: Plasma membrane-expressed enzyme acceptor protein (EA-MEM) assay
[39] = target: Calcium-dependent protein kinase 1 (Plasmodium falciparum) (UniProt P62344); conditions: Compound concentration 1000.0 nM
[40] = target: Mu-type opioid receptor (Homo sapiens) (UniProt P35372); assay: mu (MOP) (h) Eurofins-Cerep binding assay; design: ligand concentration 0.5 nM; conditions: filed as agonist, Compound concentration 10.0 uM
[41] = target: Ephrin type-B receptor 4 (Homo sapiens) (UniProt P54760); conditions: Compound concentration 1000.0 nM
[42] = target: Sigma non-opioid intracellular receptor 1 (Homo sapiens, UniProt Q99720); conditions: Compound concentration 10.0 uM
[43] = target: Serine/threonine-protein kinase 38 (Homo sapiens) (UniProt Q15208); conditions: Compound concentration 1000.0 nM
[44] = target: Activin receptor type-2B (Homo sapiens) (UniProt Q13705); conditions: Compound concentration 1000.0 nM

Vascular endothelial growth factor receptor 2 (Homo sapiens), sequence (P35968 whole entry): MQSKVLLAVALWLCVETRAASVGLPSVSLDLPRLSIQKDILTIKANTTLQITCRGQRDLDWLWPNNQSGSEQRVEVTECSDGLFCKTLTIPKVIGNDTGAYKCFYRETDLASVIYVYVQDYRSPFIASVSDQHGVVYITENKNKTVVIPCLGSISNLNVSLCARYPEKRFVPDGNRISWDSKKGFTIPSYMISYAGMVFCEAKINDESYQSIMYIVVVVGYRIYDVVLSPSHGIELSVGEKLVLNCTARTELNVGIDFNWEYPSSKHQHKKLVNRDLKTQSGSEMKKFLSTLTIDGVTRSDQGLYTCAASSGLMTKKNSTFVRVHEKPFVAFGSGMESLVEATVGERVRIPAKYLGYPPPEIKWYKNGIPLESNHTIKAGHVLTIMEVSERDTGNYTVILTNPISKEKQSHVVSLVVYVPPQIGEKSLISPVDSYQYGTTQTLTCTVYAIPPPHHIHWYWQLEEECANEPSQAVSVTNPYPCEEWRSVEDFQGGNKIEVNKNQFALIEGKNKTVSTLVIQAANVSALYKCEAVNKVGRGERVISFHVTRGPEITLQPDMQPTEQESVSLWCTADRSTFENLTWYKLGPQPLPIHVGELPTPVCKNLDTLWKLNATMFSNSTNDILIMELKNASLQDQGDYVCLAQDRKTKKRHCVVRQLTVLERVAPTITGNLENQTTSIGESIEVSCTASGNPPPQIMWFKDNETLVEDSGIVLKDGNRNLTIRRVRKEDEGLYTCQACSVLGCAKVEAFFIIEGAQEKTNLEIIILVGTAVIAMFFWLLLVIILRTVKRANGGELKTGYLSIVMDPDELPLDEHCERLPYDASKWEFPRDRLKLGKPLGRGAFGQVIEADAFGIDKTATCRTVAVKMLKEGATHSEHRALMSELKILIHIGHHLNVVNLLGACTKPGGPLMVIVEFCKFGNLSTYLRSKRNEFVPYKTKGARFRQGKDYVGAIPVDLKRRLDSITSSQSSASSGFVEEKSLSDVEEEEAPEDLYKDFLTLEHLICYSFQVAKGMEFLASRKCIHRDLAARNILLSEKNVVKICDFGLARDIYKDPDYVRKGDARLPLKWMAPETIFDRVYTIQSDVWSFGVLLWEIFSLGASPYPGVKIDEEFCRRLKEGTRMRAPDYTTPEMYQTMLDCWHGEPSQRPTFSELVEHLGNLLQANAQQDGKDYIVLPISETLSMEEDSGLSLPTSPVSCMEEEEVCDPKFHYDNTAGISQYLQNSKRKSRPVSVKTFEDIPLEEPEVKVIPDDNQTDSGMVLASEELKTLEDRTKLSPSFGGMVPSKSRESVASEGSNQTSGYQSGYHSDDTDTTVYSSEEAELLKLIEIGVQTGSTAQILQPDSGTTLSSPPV
Mitotic checkpoint serine/threonine-protein kinase BUB1 (Homo sapiens), sequence (O43683 whole entry, looked up): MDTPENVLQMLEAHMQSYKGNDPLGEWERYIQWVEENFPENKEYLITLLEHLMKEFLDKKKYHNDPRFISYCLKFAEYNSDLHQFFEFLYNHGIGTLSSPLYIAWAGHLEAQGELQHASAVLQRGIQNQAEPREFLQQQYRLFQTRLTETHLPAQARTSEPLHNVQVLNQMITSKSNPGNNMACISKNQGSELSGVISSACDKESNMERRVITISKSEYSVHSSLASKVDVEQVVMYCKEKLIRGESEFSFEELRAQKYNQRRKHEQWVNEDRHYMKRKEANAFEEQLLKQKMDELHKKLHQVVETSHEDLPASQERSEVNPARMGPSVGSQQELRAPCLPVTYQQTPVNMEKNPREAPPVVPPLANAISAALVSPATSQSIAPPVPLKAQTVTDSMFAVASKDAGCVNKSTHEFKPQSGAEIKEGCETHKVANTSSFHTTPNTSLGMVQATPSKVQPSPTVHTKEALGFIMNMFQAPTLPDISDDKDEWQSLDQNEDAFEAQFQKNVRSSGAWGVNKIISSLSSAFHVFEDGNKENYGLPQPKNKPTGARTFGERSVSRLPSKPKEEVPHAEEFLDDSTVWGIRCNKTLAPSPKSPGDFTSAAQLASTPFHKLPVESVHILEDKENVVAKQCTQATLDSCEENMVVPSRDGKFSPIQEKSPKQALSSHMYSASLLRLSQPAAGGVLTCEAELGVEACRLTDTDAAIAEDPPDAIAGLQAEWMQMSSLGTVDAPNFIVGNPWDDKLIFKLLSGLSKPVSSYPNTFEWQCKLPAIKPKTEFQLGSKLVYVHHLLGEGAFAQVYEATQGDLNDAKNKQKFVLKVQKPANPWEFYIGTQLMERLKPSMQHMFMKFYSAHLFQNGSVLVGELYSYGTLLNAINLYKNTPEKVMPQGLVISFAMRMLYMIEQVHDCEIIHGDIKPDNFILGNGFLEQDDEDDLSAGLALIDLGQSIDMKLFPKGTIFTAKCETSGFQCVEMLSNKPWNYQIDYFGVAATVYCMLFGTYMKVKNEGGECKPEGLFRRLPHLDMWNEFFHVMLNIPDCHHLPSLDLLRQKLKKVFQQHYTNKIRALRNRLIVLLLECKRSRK
1-phosphatidylinositol 3-phosphate 5-kinase (Homo sapiens), sequence (Q9Y2I7 whole entry): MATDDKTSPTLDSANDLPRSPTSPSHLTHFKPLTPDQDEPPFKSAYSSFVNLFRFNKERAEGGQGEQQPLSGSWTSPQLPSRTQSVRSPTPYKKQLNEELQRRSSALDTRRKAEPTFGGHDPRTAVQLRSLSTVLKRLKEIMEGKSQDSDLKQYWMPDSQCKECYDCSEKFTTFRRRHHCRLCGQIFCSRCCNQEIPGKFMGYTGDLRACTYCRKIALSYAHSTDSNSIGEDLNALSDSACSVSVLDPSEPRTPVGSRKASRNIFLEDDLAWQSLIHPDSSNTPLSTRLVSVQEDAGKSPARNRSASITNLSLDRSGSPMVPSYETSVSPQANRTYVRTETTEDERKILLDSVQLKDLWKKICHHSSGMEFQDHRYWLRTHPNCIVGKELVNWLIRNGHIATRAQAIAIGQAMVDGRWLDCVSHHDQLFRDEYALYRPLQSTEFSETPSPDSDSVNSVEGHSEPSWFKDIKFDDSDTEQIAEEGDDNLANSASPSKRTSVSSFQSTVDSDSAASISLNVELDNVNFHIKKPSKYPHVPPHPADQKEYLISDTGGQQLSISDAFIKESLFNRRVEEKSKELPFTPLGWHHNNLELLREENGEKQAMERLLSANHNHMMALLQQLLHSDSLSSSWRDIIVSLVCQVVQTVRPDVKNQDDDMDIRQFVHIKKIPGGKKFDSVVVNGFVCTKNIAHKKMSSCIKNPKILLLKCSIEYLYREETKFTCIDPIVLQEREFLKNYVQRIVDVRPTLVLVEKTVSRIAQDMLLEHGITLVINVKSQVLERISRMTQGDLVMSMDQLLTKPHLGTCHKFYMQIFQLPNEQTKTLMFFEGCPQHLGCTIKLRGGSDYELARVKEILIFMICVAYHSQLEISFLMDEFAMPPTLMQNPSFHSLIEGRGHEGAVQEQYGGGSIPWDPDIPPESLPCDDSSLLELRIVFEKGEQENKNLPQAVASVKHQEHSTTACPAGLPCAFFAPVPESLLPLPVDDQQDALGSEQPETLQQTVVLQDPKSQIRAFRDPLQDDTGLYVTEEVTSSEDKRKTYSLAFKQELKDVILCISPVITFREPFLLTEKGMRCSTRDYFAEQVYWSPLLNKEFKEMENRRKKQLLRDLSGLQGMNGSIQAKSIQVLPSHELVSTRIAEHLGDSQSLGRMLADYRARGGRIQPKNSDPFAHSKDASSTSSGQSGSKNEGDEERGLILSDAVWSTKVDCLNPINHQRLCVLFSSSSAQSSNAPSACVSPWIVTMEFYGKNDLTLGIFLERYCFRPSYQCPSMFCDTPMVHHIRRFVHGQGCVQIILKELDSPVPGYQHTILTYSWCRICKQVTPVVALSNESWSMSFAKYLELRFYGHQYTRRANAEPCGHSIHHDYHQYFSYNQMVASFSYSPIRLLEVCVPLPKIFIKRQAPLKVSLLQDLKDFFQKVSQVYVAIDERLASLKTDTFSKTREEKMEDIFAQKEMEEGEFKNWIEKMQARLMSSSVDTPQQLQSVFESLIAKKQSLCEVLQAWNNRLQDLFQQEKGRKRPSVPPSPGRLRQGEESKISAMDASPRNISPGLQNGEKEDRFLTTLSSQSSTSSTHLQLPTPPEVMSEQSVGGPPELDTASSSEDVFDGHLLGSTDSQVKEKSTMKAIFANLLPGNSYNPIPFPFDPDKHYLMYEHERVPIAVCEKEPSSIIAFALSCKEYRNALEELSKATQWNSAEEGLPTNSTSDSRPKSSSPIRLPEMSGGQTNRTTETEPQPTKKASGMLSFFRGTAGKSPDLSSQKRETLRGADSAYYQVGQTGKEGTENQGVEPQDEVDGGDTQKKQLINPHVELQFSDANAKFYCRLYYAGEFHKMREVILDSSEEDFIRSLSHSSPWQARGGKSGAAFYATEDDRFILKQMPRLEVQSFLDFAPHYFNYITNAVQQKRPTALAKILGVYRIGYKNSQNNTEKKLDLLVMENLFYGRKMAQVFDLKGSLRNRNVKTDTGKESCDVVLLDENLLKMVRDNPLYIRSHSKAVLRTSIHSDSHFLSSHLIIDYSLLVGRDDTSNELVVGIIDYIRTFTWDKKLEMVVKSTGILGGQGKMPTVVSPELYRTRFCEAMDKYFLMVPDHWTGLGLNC
Sigma non-opioid intracellular receptor 1, sequence (Q99720 whole entry): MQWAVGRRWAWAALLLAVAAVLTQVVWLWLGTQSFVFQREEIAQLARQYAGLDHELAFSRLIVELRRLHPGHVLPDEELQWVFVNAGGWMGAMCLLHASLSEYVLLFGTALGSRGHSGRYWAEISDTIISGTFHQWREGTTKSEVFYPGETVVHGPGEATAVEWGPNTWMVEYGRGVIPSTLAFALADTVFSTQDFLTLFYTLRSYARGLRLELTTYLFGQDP
Type-1 angiotensin II receptor (Homo sapiens), sequence (P30556 whole entry): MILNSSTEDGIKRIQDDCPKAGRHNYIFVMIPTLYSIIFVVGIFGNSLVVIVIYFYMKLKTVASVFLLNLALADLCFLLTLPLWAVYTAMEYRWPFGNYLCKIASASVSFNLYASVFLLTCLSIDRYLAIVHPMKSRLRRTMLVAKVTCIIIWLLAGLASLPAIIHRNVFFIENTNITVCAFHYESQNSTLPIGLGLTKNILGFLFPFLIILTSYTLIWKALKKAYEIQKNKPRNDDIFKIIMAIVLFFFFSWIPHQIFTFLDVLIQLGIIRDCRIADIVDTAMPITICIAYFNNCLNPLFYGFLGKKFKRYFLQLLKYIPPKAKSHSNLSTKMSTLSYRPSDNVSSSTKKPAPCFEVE

## COc1ccc2c(c1)O[C@H](c1ccc(OC)c(OC)c1)C[C@@H]2NC(=O)C1(c2ccc3c(c2)OC(F)(F)O3)CC1 [A-1596584]
[1]
  residual activity: 100%
[2]
  residual activity: 91%
[3]
  residual activity: 100%
[4]
  residual activity: 100%
[5]
  residual activity: 100%
[6]
  residual activity: 97%
[7]
  residual activity: 98%
[8]
  residual activity: 98%
[9]
  residual activity: 100%
[10]
  residual activity: 100%
[11]
  residual activity: 93%
[12]
  residual activity: 100%
[13]
  residual activity: 92%
[14]
  residual activity: 90%
[15]
  residual activity: 92%
[16]
  % Inhibition of Control Specific Binding (Mean n=2): -86.2%
[17]
  residual activity: 88%
[18]
  residual activity: 100%
[19]
  residual activity: 93%
[20]
  residual activity: 100%
[21]
  % Inhibition of Control Specific Binding (Mean n=2): 5%
[22]
  residual activity: 87%
[23]
  residual activity: 100%
[24]
  % Inhibition of Control Specific Binding (Mean n=2): -3.3%
[25]
  residual activity: 97%
[26]
  % Inhibition of Control Specific Binding (Mean n=2): 12.3%
[27]
  residual activity: 98%
[28]
  residual activity: 100%
[29]
  residual activity: 88%
[30]
  residual activity: 88%
[31]
  residual activity: 92%
[32]
  % Inhibition of Control Values (Mean n=2): 2.2%
[33]
  residual activity: 100%
[34]
  inhibition: 27.4%
[35]
  residual activity: 98%
[36]
  residual activity: 91%
[37]
  residual activity: 89%
[38]
  EC50: 3.9 µM (not active)
[39]
  residual activity: 79%
[40]
  % Inhibition of Control Specific Binding (Mean n=2): 11.3%
[41]
  residual activity: 88%
[42]
  inhibition: 53%
[43]
  residual activity: 100%
[44]
  residual activity: 100%

## COc1ccc2c(c1)O[C@@H](c1ccc(OC)c(OC)c1)C[C@H]2NC(=O)C1(c2ccc3c(c2)OC(F)(F)O3)CC1 [A-1596586]
[1]
  residual activity: 100%
[2]
  residual activity: 100%
[3]
  residual activity: 90%
[4]
  residual activity: 100%
[5]
  residual activity: 91%
[6]
  residual activity: 93%
[7]
  residual activity: 95%
[8]
  residual activity: 90%
[9]
  residual activity: 94%
[10]
  residual activity: 100%
[11]
  residual activity: 100%
[12]
  residual activity: 96%
[13]
  residual activity: 81%
[14]
  residual activity: 94%
[15]
  residual activity: 90%
[16]
  % Inhibition of Control Specific Binding (Mean n=2): -27.5%
[17]
  residual activity: 100%
[18]
  residual activity: 100%
[19]
  residual activity: 75%
[20]
  residual activity: 100%
[21]
  % Inhibition of Control Specific Binding (Mean n=2): 19.2%
[22]
  residual activity: 84%
[23]
  residual activity: 100%
[24]
  % Inhibition of Control Specific Binding (Mean n=2): -9.2%
[25]
  residual activity: 100%
[26]
  % Inhibition of Control Specific Binding (Mean n=2): -1.1%
[27]
  residual activity: 96%
[28]
  residual activity: 91%
[29]
  residual activity: 80%
[30]
  residual activity: 83%
[31]
  residual activity: 99%
[32]
  % Inhibition of Control Values (Mean n=2): 0.8%
[33]
  residual activity: 99%
[34]
  inhibition: 34.1%
[35]
  residual activity: 100%
[36]
  residual activity: 81%
[37]
  residual activity: 100%
[38]
  EC50: 0.035 µM (active)
[39]
  residual activity: 70%
[40]
  % Inhibition of Control Specific Binding (Mean n=2): 9.8%
[41]
  residual activity: 91%
[42]
  inhibition: 82.8%
[43]
  residual activity: 91%
[44]
  residual activity: 96%
